Reference: US20150246074A1, “METHODS OF A[…] TOLERANCE” (The Board of Trustees of the University of Illinois, priority 2014, published 2015)

Experiments:
SH-SY5Y cells = assay: cAMP accumulation assay in morphine-treated SH-SY5Y cells; format: cell-based, human; details: for cAMP levels: 24 h, SH-SY5Y cells, control not treated with morphine = 100%
Description: Culture of SH-SY5Y Cells. SH-SY5Y cells, a well-established stable human neuroblastoma cell line, were purchased from American Type Culture Collection (ATCC, Manassas, Va.) and grown in Dulbecco's modified Eagle's medium (DMEM) with 10% fetal bovine serum, […] penicillin, and 100 μg/ml streptomycin at 37° C. in a 5% CO2 humidified incubator (Fisher). Before experiments, SH-SY5Y cells were treated with 10 μM retinoic acid (RA) for 6 days to induce neuronal differentiation. These differentiated SH-SY5Y cells were then treated with morphine (10 μM) for 24 h unless otherwise specified.
cAMP Accumulation Assay. Levels of cAMP, which is involved in a cellular mechanism of opioid tolerance development, were determined in morphine-treated SH-SY5Y cells. Thirty-six hours after co-culturing with hMSCs or HDFs, SH-SY5Y cells were harvested with a non-enzymatic cell dissociation solution and washed once with HBSS buffer. cAMP accumulation in SH-SY5Y cells was assayed using a LANCE™ cAMP kit (PerkinElmer, Waltham, Mass.) according to the manufacturer's protocol. SH-SY5Y cells were centrifuged at 1000 g for 2 min, resuspended at a concentration of 2×10^6 cells/ml in stimulation buffer (1×HBSS, 5 mM HEPES, 0.1% BSA, 0.5 mM IBMX, pH 7.4) and mixed with 50 μM forskolin. Alexa pluor® 647 labeled antibody was added to the cell suspension and the cells were incubated at 37° C. for additional 15 min, and detection mix was then added to the final cell suspension. The cell sample was further incubated for 1 h in the dark and read on a TECAN instrument (San Jose, Calif.) to measure the LANCE signal. The LANCE signal obtained at […] was directly used to analyze the cAMP levels. The signal at […] was used to identify dispensing or quenching problems. The cAMP standard curve was assayed according to the manufacturer's instructions. The cAMP formation was calculated as the percentage of forskolin-stimulated cAMP accumulation without morphine, which was defined as 100%. All data were expressed as mean±SD. Statistical comparisons were analyzed using Prism software. […]

Sprague-Dawley rats [1] = assay: Withdrawal thresholds to mechanical stimulation (von Frey) in rats, MSC transplantation and daily morphine; format: in vivo, rat
Description: (§1) Animal care and use. The experimental protocols were approved by the Institutional Animal Care and Use Committee of Cleveland Clinic (IACUC #: 2010-0460). Experiments were performed on 24 male Sprague-Dawley rats (250-300 g), purchased from Harlan Laboratories (Indianapolis, Ind.). The animals were housed in group cages (2 per cage), allowed free access to food and water, and maintained on a 12/12 hour light/dark cycle.
(§2) Experimental design. Animals were habituated daily to the experimental environment for 1 week before testing. Pain sensitivity to mechanical or thermal stimuli applied to the hindpaws was determined by the thresholds of withdrawal of the hindlimbs from the stimuli. […] The effects of MSC transplantation or PBS injection on morphine-induced tolerance were evaluated every other day. […]
(§3) Stem cell transplantation. […] Immediately before transplantation, the cells were gently dissociated with 0.25% Trypsin, pelleted by centrifugation, counted by trypan blue exclusion, and suspended in 50 μl of PBS. […]
(§4) Behavioral tests. […] Withdrawal thresholds were quantified as the mechanical pressure in grams applied to the hindpaws through calibrated filaments (von Frey filaments) or the time interval in seconds between the activation of an infrared thermal stimulation and the withdrawal of the limb. […]

Sprague-Dawley rats [2] = assay: Withdrawal thresholds to thermal stimulation (plantar test) in rats, MSC transplantation and daily morphine; format: in vivo, rat; details: control group, Day 17 and thereafter, daily morphine, p<0.05
Description: as §1, §2, §3, §4

## CN1CC[C@]23c4c5ccc(O)c4O[C@H]2[C@@H](O)C=C[C@H]3[C@H]1C5 [morphine]
SH-SY5Y cells; 1 μM morphine
  cAMP levels: 150.7±20.6 % of control
SH-SY5Y cells; 10 μM morphine
  cAMP levels: 241.6±19.6 % of control
SH-SY5Y cells; 10 μM morphine, at 24 and 48 h vs 0 h, p<0.001 (FIG. 2)
  cAMP levels over time: significant increase of cAMP
Sprague-Dawley rats [1]; control (PBS) group, daily s.c. morphine 7.5 mg/kg, within five days
  withdrawal thresholds to mechanical stimulation (morphine tolerance): gradually and significantly reduced
Sprague-Dawley rats [1]; control group, Day 15, 4 days after start of daily morphine injections, t=15.639, p<0.001
  mean mechanical withdrawal thresholds vs pre-morphine value at day 11: dramatically decreased
Sprague-Dawley rats [2]
  withdrawal thresholds to thermal stimulation vs pre-morphine values at day 11: significantly reduced
